Our source for the IC50 values is US20220324865A1 (Bayer Aktiengesellschaft, priority 2018, published 2022).

This experiment deals with T1, human EP3 receptor (Homo sapiens, UniProt P43115).
T1 construct: expressed in transfected cells; host or cells: CHO K1 (Chinese Hamster Ovary), stably co-transfected with Galpha16 and mitochondrial clytin
T1 sequence (P43115 1-390): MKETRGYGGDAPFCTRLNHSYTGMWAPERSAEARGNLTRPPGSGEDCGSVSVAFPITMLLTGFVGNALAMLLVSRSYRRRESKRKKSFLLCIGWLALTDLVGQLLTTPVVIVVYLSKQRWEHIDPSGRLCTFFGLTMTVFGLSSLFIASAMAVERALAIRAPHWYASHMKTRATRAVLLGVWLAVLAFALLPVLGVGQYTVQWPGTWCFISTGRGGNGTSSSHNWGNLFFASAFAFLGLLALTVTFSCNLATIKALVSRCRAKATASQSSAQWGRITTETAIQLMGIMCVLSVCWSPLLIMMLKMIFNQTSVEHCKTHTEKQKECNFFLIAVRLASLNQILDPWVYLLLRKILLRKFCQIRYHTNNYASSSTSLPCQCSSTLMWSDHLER
The experiment in a line: Cellular in vitro assay for determining EP3 receptor activity (human EP3 cell line, sulprostone-stimulated calcium luminescence). The experiment is classed as cell-based. The following applies: CHO cells expressing human EP3 and mitochondrial Clytin; antagonist mode, sulprostone at EC50; read-out: EP3 CHO mtCLY ANTAG IC50. The procedure, abridged:
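Antagonist activity was measured as inhibition of the luminescent calcium signal elicited by EC50 sulprostone, following 10 min compound pretreatment. The cell line was recombinant CHO K1 co-expressing human EP3, Gα16 and the photoprotein Clytin, reconstituted with coelenterazine.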

Structures are written as SMILES.

With `Cc1ccc(-c2cn3nc(C(=O)NC4(C)CCC4)cc3c(=O)[nH]2)cc1C` [Example 5-5, 6-(3,4-Dimethylphenyl)-N-(1-methylcyclobutyl)-4-oxo-4,5-dihydropyrazolo[1,5-a]pyrazine-2-carboxamide], the IC50 was found to be 6.7 nM.
